According to patent US8999969B2, “Anti-RSV compounds” (Gilead Sciences, Inc., priority 2009, dated 2015):

Test system: RSV strain A2
Test: in vitro cytoprotection assay against RSV in Hep2 cells
Type: cell-based
Details: human respiratory syncytial virus, HEp-2, 96 h; 1 uM compound; RSV-induced cytopathic effect in Hep2 cells, 4 days, Cell TiterGlo; read-out: RSV % inh. @ 1 uM
Experimental: Antiviral activity against RSV was determined using an in vitro cytoprotection assay in Hep2 cells. […] The method used is similar to methods previously described in Chapman J et al., “RSV604 a novel inhibitor of respiratory syncytial virus replication,” Antimicrob Agents Chemother, 51(9):3346-53 (2007).
Hep2 cells were obtained from ATCC (Manassas, Va.) and maintained in MEM media supplemented with 10% fetal bovine serum and penicillin/streptomycin. Cells were passaged twice a week and kept at subconfluent stage. Commercial stock of RSV strain A2 (Advanced Biotechnologies, Columbia, Md.) was titered before compound testing to determine the appropriate dilution of the virus stock that generates desirable cytopathic effect in Hep2 cells.
For antiviral tests, Hep2 cells were seeded into 96-well plates 24 hours before the assay at a density of 3,000 cells/well. On a separate 96well plate, tested compounds were serially diluted in cell culture media. Eight concentrations in 3-fold serial dilution increments were prepared for each tested compound and 100 uL/well of each dilution was transferred in duplicate onto plates with seeded Hep2 cells. Subsequently, appropriate dilution of virus stock previously determined by titration was prepared in cell culture media and 100 uL/well was added to test plates containing cells and serially diluted compounds. Each plate included three wells of infected untreated cells and three wells of uninfected cells that served as 0% and 100% virus inhibition control, respectively. Following the infection with RSV, testing plates were incubated for 4 days in a tissue culture incubator. After the incubation, RSV-induced cytopathic effect was determined using a Cell TiterGlo reagent (Promega, Madison, Wis.) followed by a luminescence read-out. The percentage inhibition was calculated for each tested concentration relative to the 0% and 100% inhibition controls and the EC50 value for each compound was determined by non-linear regression as a concentration inhibiting the RSV-induced cytopathic effect by 50%. Ribavirin (purchased from Sigma, St. Louis, Mo.) was used as a positive control for antiviral activity.

| Compound | inhibition at 1 µM [%] |
| --- | --- |
| Cn1nc(C(=O)Nc2ccc(C(=O)N3CCc4cc(C(=O)NC5CC5)sc4-c4ccccc43)cc2)c2ccccc21 [Example 27] | 41 |
| COC[C@@H]1CCCN1c1ncccc1C(=O)Nc1ccc(C(=O)N2CCc3cc(C(=O)NC4CC4)sc3-c3ccccc32)cc1 [Example 43] | 99 |
| O=C(NC1CC1)c1cc2c(s1)-c1ccccc1N(C(=O)c1ccc(NC(=O)c3cccnc3Br)cc1)CC2 [Example 1] | 76 |
| O=C(NC1CC1)c1cc2c(s1)-c1ccccc1N(C(=O)c1ccc(NC(=O)c3cccnc3N3CC(F)C3)cc1)CC2 [Example 45] | 100 |
| O=C(NC1CC1)c1cc2c(s1)-c1ccccc1N(C(=O)c1ccc(NS(=O)(=O)c3ccccc3)cc1)CC2 [Example 34] | 90 |
| O=C(NCc1ccccn1)c1cc2c(s1)-c1ccccc1N(C(=O)c1ccc(NC(=O)c3cccnc3N3CCCC3)cc1)CC2 [Example 50] | 100 |
| O=C(NC1CC1)c1cc2c(s1)-c1ccccc1N(C(=O)c1ccc(NC(=O)c3cccnc3N3CC(F)(F)C3)c(F)c1)CC2 [Example 64] | 99 |
| COc1ccc(C(=O)Nc2ccc(C(=O)N3CCc4cc(C(=O)NC5CC5)sc4-c4ccccc43)cc2)c(C)c1 [Example 47] | 100 |
| O=C(NCc1nccs1)c1cc2c(s1)-c1ccccc1N(C(=O)c1ccc(NC(=O)c3cccnc3N3CCCC3)cc1)CC2 [Example 52] | 100 |
| NC(=O)CCNC(=O)c1cc2c(s1)-c1ccccc1N(C(=O)c1ccc(NC(=O)c3cccnc3N3CCCC3)cc1)CC2 [Example 60] | 35 |
| C[C@@H]1CCCN1c1ncccc1C(=O)Nc1ccc(C(=O)N2CCc3cc(C(=O)NC4CC4)sc3-c3ccccc32)cc1 [Example 6] | 100 |
| O=C(NC1CC1)c1cc2c(s1)-c1ccccc1N(C(=O)c1ccc(NC(=O)c3ccccc3-c3cccs3)cc1)CC2 [Example 11] | 99 |
| O=C(NC1CC1)c1cc2c(s1)-c1ccccc1N(C(=O)c1ccc(NC(=O)c3cccnc3N3CCC(F)(F)C3)cc1)CC2 [Example 9] | 100 |
| O=C(NC1CC1)c1cc2c(s1)-c1ccccc1N(C(=O)c1ccc(NC(=O)c3ccncc3N3CC(F)C3)cc1)CC2 [Example 63] | 99 |
| O=C(NC1CC1)c1cc2c(s1)-c1ccccc1N(C(=O)c1ccc(NC(=O)c3ncccc3Br)cc1)CC2 [Example 5] | 79 |
| COc1ccc(C(=O)Nc2ccc(C(=O)N3CCc4cc(C(=O)NC5CC5)sc4-c4ccccc43)cc2)cc1 [Example 15] | 97 |
| O=C(NC1CC1)c1cc2c(s1)-c1ccccc1N(C(=O)c1ccc(NC(=O)c3cnccc3N3CCC3)cc1)CC2 [Example 19] | 100 |

| Compound | inhibition at 1 µM [%] |
| --- | --- |
| O=C(NC1CC1)c1cc2c(s1)-c1ccccc1N(C(=O)c1ccc(NC(=O)c3cnccc3C(F)(F)F)cc1)CC2 [Example 14] | 100 |
| Cn1ccnc1CNC(=O)c1cc2c(s1)-c1ccccc1N(C(=O)c1ccc(NC(=O)c3cccnc3N3CCCC3)cc1)CC2 [Example 62] | 90 |
| O=C(NC1CC1)c1cc2c(s1)-c1ccccc1N(C(=O)c1ccc(NC(=O)c3ccccc3Cc3ccccc3)cc1)CC2 [Example 17] | 100 |
| O=C(Nc1ccc(C(=O)N2CCc3cc(C(=O)NC4CC4)sc3-c3ccccc32)cc1)c1ccnc(N2CCC2)c1 [Example 21] | 94 |
| Cn1ccc2cccc(C(=O)Nc3ccc(C(=O)N4CCc5cc(C(=O)NC6CC6)sc5-c5ccccc54)cc3)c21 [Example 20] | 99 |
| Cc1ccsc1C(=O)Nc1ccc(C(=O)N2CCc3cc(C(=O)NC4CC4)sc3-c3ccccc32)cc1 [Example 22] | 90 |
| COC1CN(C(=O)c2cc3c(s2)-c2ccccc2N(C(=O)c2ccc(NC(=O)c4cccnc4N4CCCC4)cc2)CC3)C1 [Example 59] | 43 |
| O=C(N[C@@H]1CCOC1)c1cc2c(s1)-c1ccccc1N(C(=O)c1ccc(NC(=O)c3cccnc3N3CCCC3)cc1)CC2 [Example 57] | 95 |
| O=C(NC1CC1)c1cc2c(s1)-c1ccccc1N(C(=O)c1ccc(NC(=O)c3cccnc3N3CCCC3)cc1)CC2 [Example 37] | 100 |
| O=C(NC1CC1)c1cc2c(s1)-c1ccccc1N(C(=O)c1ccc(NC(=O)c3ccncc3N3CCC3)cc1)CC2 [Example 12] | 97 |
| C[C@H](NC(=O)c1cc2c(s1)-c1ccccc1N(C(=O)c1ccc(NC(=O)c3cccnc3N3CCCC3)cc1)CC2)C(N)=O [Example 51] | 46 |
| Cc1cc(C(=O)Nc2ccc(C(=O)N3CCc4cc(C(=O)NC5CC5)sc4-c4ccccc43)cc2)n(C(C)(C)C)n1 [Example 24] | 78 |
| O=C(Nc1ccc(C(=O)N2CCc3cc(C(=O)NC4CC4)sc3-c3ccccc32)cc1)c1ccc(N2CCC2)nc1 [Example 31] | 30 |
| O=C(NC1CC1)c1cc2c(s1)-c1ccccc1N(C(=O)c1ccc(NC(=O)c3cccc4nccnc34)cc1)CC2 [Example 25] | 64 |
| O=C(NC1CC1)c1cc2c(s1)-c1ccccc1N(C(=O)c1ccc(NC(=O)c3cccnc3N3CC[C@@H](O)C3)cc1)CC2 [Example 44] | 77 |
| CN(C)C(=O)c1cc2c(s1)-c1ccccc1N(C(=O)c1ccc(NC(=O)c3cccnc3N3CCCC3)cc1)CC2 [Example 55] | 16 |
